Series [1] deals with Staphylococcus aureus (NRS 384). The series can be described thus: microbe, parasite or virus in culture. Type of series: cell-based. Particulars: NRS 384. From the text: According to the Standards of Clinical and Laboratory Standards Institute (CLSI) of the USA for antimicrobial drug susceptibility test operation standards, a micronutrient serial twofold dilution method was used to determine minimum inhibitory concentrations (MICs) of all 60 peptides (S/N: LV-1˜LV-60) against Staphylococcus aureus (NRS 384). The experiment was repeated 5 times in parallel. […] An antibacterial drug Levofloxacin and an AMP Cbf-K16 (sequence of Cbf-K16: […]) were used as positive controls to evaluate the antibacterial effect of the antimicrobial peptides on Staphylococcus aureus (NRS 384).

For another series, the system named is rabbit red blood cells. Type of series: cell-based. Particulars: red cells of rabbit, 1 h. Here is the method: Fresh rabbit blood ([…]) was collected and centrifuged at 500 g for 5 min, a supernatant was discarded, and red blood cells were repeatedly washed with phosphate-buffered saline (PBS, 0.01 M, pH 7.4) until the supernatant was clear. The red blood cells (RBCs) were resuspended to 10 mL, and diluted 25-fold with PBS (0.01 M, pH 7.4) to prepare a red blood cell suspension with a concentration of about 2×10^8 RBC/mL. The AMPs were subjected to gradient dilution with normal saline (0.85%, w/v, NaCl) according to a multiple dilution method, final concentrations of the SMPs were 1.95, 3.9, 7.8, 15.6, 31.3, 62.5, 125, 250, 500, 1000, and 2000 μg/mL. 100 μl of polypeptide solution was taken and added to a 96-well plate with 5 replicates for each concentration; 100 μl of rabbit blood with a red blood cell count of about 2×10^8 RBC/mL was then added to each well, the plate was incubated at 37° C. for 1 h, centrifuged at 500 g for 5 min, 100 μl of supernatant was taken and transferred to a new 96-well plate, and an optical density (OD) at a wavelength of 541 nm was measured using a microplate reader. Triton X-100 (10 mg/mL as a starting concentration, two-fold gradient dilution) was used as a positive control group. A hemolysis rate was calculated using the following formula: Hemolysis rate (%)=[(OD541 of experimental group-OD541 of negative control group)/(OD541 of positive control group−OD541 of negative control group)]×100% Specific results of the hemolysis test are shown in Table 6. Minimum hemolytic concentration (MHC): a lowest drug concentration that can cause 10% hemolysis.

≈ marks a conversion by molar mass, not a printed value. Non-standard residues stand in square brackets, D forms with d. Residues, ends and D or L forms follow the SMILES beside them. Phe(4-CF3) = N[C@@H](Cc1ccc(C(F)(F)F)cc1)C(=O)O; Phe(4-Br) = N[C@@H](Cc1ccc(Br)cc1)C(=O)O; Phe(4-Me) = Cc1ccc(C[C@H](N)C(=O)O)cc1; 2Nal = N[C@@H](Cc1ccc2ccccc2c1)C(=O)O; hLeu = CC(C)CC[C@H](N)C(=O)O; Nle = CCCC[C@H](N)C(=O)O; Nva = CCC[C@H](N)C(=O)O Where only a bound is given, the exact number is not on record here.

As to `CC(=O)N[C@@H](CCCNC(=N)N)C(=O)N[C@@H](CCCCN)C(=O)N[C@@H](CC(C)C)C(=O)N[C@@H](CC(C)C)C(=O)N[C@@H](Cc1ccc(C(F)(F)F)cc1)C(=O)N[C@@H](CCCCN)C(=O)N[C@@H](CC(C)C)C(=O)N[C@@H](CCCCN)C(=O)N[C@@H](Cc1ccc(C(F)(F)F)cc1)C(=O)N[C@@H](CCCCN)C(=O)N[C@@H](CCCNC(=N)N)C(N)=O` [LV-39] (Ac-RKLL[Phe(4-CF3)]KLK[Phe(4-CF3)]KR-NH2), the “MIC against Staphylococcus aureus (NRS 384)” value (shortened to “MIC”) in series [1] turned out to be 8 µg/mL (≈ 4.84 µM). The “MHC (minimum hemolytic concentration, lowest concentration causing 10% hemolysis)” value with rabbit red blood cells was over 1000 µg/mL.
For `CC(=O)N[C@@H](CCCCN)C(=O)N[C@@H](CCCCN)C(=O)N[C@@H](CC(C)C)C(=O)N[C@@H](CC(C)C)C(=O)N[C@@H](Cc1ccc(Br)cc1)C(=O)N[C@@H](CCCNC(=N)N)C(=O)N[C@@H](CC(C)C)C(=O)N[C@@H](CCCCN)C(=O)N[C@@H](Cc1ccc(Br)cc1)C(=O)N[C@@H](CCCNC(=N)N)C(=O)N[C@@H](CCCCN)C(N)=O` [LV-40] (Ac-KKLL[Phe(4-Br)]RLK[Phe(4-Br)]RK-NH2), in that order: 4 µg/mL (≈ 2.39 µM) and over 1000 µg/mL.
For the molecule `CC(=O)N[C@@H](CCCNC(=N)N)C(=O)N[C@@H](CCCCN)C(=O)N[C@@H](CC(C)C)C(=O)N[C@@H](CC(C)C)C(=O)N[C@@H](Cc1ccc(C)cc1)C(=O)N[C@@H](CCCCN)C(=O)N[C@@H](CC(C)C)C(=O)N[C@@H](CCCCN)C(=O)N[C@@H](Cc1ccc(C)cc1)C(=O)N[C@@H](CCCCN)C(=O)N[C@@H](CCCNC(=N)N)C(N)=O` [LV-41] (Ac-RKLL[Phe(4-Me)]KLK[Phe(4-Me)]KR-NH2), in series [1], the “MIC” value came to 4 µg/mL (≈ 2.59 µM). Moreover, the “MHC (minimum hemolytic concentration, lowest concentration causing 10% hemolysis)” value in the series on rabbit red blood cells is over 1000 µg/mL.
Consider `CCCC[C@H](NC(=O)[C@H](CCCCN)NC(=O)[C@H](CCCNC(=N)N)NC(C)=O)C(=O)N[C@@H](CCCC)C(=O)N[C@@H](Cc1ccc2ccccc2c1)C(=O)N[C@@H](CCCNC(=N)N)C(=O)N[C@@H](CCCC)C(=O)N[C@@H](CCCCN)C(=O)N[C@@H](Cc1ccc2ccccc2c1)C(=O)N[C@@H](CCCNC(=N)N)C(=O)N[C@@H](CCCCN)C(N)=O` [LV-42] (Ac-RK[Nle][Nle][2Nal]R[Nle]K[2Nal]RK-NH2), for which, in series [1], the “MIC” value was found to be 8 µg/mL (≈ 4.86 µM). In addition, the “MHC (minimum hemolytic concentration, lowest concentration causing 10% hemolysis)” value with rabbit red blood cells was over 1000 µg/mL.
`CCC[C@H](NC(=O)[C@H](CCCCN)NC(=O)[C@H](CCCNC(=N)N)NC(C)=O)C(=O)N[C@@H](CCC)C(=O)N[C@@H](Cc1ccc2ccccc2c1)C(=O)N[C@@H](CCCNC(=N)N)C(=O)N[C@@H](CCC)C(=O)N[C@@H](CCCCN)C(=O)N[C@@H](Cc1ccc2ccccc2c1)C(=O)N[C@@H](CCCNC(=N)N)C(=O)N[C@@H](CCCCN)C(N)=O` [LV-43] (Ac-RK[Nva][Nva][2Nal]R[Nva]K[2Nal]RK-NH2): the “MIC” value in series [1] came out at 8 µg/mL (≈ 4.99 µM). Moreover, the “MHC (minimum hemolytic concentration, lowest concentration causing 10% hemolysis)” value in the series on rabbit red blood cells is over 1000 µg/mL.
In the case of `CC(=O)N[C@@H](CCCNC(=N)N)C(=O)N[C@@H](CCCCN)C(=O)N[C@@H](CCC(C)C)C(=O)N[C@@H](CCC(C)C)C(=O)N[C@@H](Cc1ccc2ccccc2c1)C(=O)N[C@@H](CCCNC(=N)N)C(=O)N[C@@H](CCC(C)C)C(=O)N[C@@H](CCCCN)C(=O)N[C@@H](Cc1ccc2ccccc2c1)C(=O)N[C@@H](CCCNC(=N)N)C(=O)N[C@@H](CCCCN)C(N)=O` [LV-44] (Ac-RK[hLeu][hLeu][2Nal]R[hLeu]K[2Nal]RK-NH2), the “MIC” value in series [1] was 8 µg/mL (≈ 4.74 µM). Moreover, in the series on rabbit red blood cells, the “MHC (minimum hemolytic concentration, lowest concentration causing 10% hemolysis)” value is over 1000 µg/mL.
For `CC(=O)N[C@@H](CCCNC(=N)N)C(=O)N[C@@H](CCCCN)C(=O)N[C@@H](C)C(=O)N[C@@H](C)C(=O)N[C@@H](Cc1ccc2ccccc2c1)C(=O)N[C@@H](CCCNC(=N)N)C(=O)N[C@@H](C)C(=O)N[C@@H](CCCCN)C(=O)N[C@@H](Cc1ccc2ccccc2c1)C(=O)N[C@@H](CCCNC(=N)N)C(=O)N[C@@H](CCCCN)C(N)=O` [LV-45] (Ac-RKAA[2Nal]RAK[2Nal]RK-NH2), the “MIC” value in series [1] came out at 2 µg/mL (≈ 1.32 µM). Further, the “MHC (minimum hemolytic concentration, lowest concentration causing 10% hemolysis)” value in the series on rabbit red blood cells was over 1000 µg/mL.
For `CC(=O)N[C@@H](CCCNC(=N)N)C(=O)N[C@@H](CCCCN)C(=O)N[C@H](C(=O)N[C@H](C(=O)N[C@@H](Cc1ccc2ccccc2c1)C(=O)N[C@@H](CCCNC(=N)N)C(=O)N[C@H](C(=O)N[C@@H](CCCCN)C(=O)N[C@@H](Cc1ccc2ccccc2c1)C(=O)N[C@@H](CCCNC(=N)N)C(=O)N[C@@H](CCCCN)C(N)=O)C(C)C)C(C)C)C(C)C` [LV-46] (Ac-RKVV[2Nal]RVK[2Nal]RK-NH2), in series [1], the “MIC” value was 4 µg/mL (≈ 2.49 µM). In the series on rabbit red blood cells, the “MHC (minimum hemolytic concentration, lowest concentration causing 10% hemolysis)” value was over 1000 µg/mL.
The matching figures for `CC(=O)N[C@@H](CCCCN)C(=O)N[C@@H](CCCCN)C(=O)N[C@@H](CC(C)C)C(=O)N[C@@H](CC(C)C)C(=O)N[C@@H](Cc1ccc2ccccc2c1)C(=O)N[C@@H](CCCCN)C(=O)N[C@@H](CC(C)C)C(=O)N[C@@H](CCCCN)C(=O)N[C@@H](Cc1ccc2ccccc2c1)C(=O)N[C@@H](CCCCN)C(=O)N[C@@H](CCCCN)C(N)=O` [LV-47] (Ac-KKLL[2Nal]KLK[2Nal]KK-NH2): 2 µg/mL (≈ 1.28 µM) and over 1000 µg/mL.
As to `CC(=O)N[C@@H](CCCNC(=N)N)C(=O)N[C@@H](CCCCN)C(=O)N[C@@H](CC(C)C)C(=O)N[C@@H](CC(C)C)C(=O)N[C@@H](Cc1ccc2ccccc2c1)C(=O)N[C@@H](CCCCN)C(=O)N[C@@H](CC(C)C)C(=O)N[C@@H](CCCCN)C(=O)N[C@@H](Cc1ccc2ccccc2c1)C(=O)N[C@@H](CCCCN)C(=O)N[C@@H](CCCNC(=N)N)C(N)=O` [LV-48] (Ac-RKLL[2Nal]KLK[2Nal]KR-NH2), the “MIC” value in series [1] was found to be 4 µg/mL (≈ 2.47 µM). Further, the “MHC (minimum hemolytic concentration, lowest concentration causing 10% hemolysis)” value in the series with rabbit red blood cells was over 1000 µg/mL.
The matching figures for `CC(=O)N[C@@H](CCCCN)C(=O)N[C@@H](CCCCN)C(=O)N[C@@H](CC(C)C)C(=O)N[C@@H](CC(C)C)C(=O)N[C@@H](Cc1ccc2ccccc2c1)C(=O)N[C@@H](CCCNC(=N)N)C(=O)N[C@@H](CC(C)C)C(=O)N[C@@H](CCCCN)C(=O)N[C@@H](Cc1ccc2ccccc2c1)C(=O)N[C@@H](CCCNC(=N)N)C(=O)N[C@@H](CCCCN)C(N)=O` [LV-49] (Ac-KKLL[2Nal]RLK[2Nal]RK-NH2): 8 µg/mL (≈ 4.94 µM) and over 1000 µg/mL.
For `CC(=O)N[C@@H](CCCNC(=N)N)C(=O)N[C@@H](CCCCN)C(=O)N[C@@H](CC(C)C)C(=O)N[C@@H](CC(C)C)C(=O)N[C@@H](Cc1ccc2ccccc2c1)C(=O)N[C@@H](CCCNC(=N)N)C(=O)N[C@@H](CC(C)C)C(=O)N[C@@H](CCCCN)C(=O)N[C@@H](Cc1ccc2ccccc2c1)C(=O)N[C@@H](CCCNC(=N)N)C(=O)N[C@@H](CCCCN)C(N)=O` [LV-50] (Ac-RKLL[2Nal]RLK[2Nal]RK-NH2), in that order: 4 µg/mL (≈ 2.43 µM) and over 1000 µg/mL.
Consider `CC(=O)N[C@@H](CCCNC(=N)N)C(=O)N[C@@H](CCCNC(=N)N)C(=O)N[C@@H](CC(C)C)C(=O)N[C@@H](CC(C)C)C(=O)N[C@@H](Cc1ccc2ccccc2c1)C(=O)N[C@@H](CCCNC(=N)N)C(=O)N[C@@H](CC(C)C)C(=O)N[C@@H](CCCCN)C(=O)N[C@@H](Cc1ccc2ccccc2c1)C(=O)N[C@@H](CCCNC(=N)N)C(=O)N[C@@H](CCCCN)C(N)=O` [LV-51] (Ac-RRLL[2Nal]RLK[2Nal]RK-NH2), for which the “MIC” value in series [1] amounted to 4 µg/mL (≈ 2.39 µM). Besides, the “MHC (minimum hemolytic concentration, lowest concentration causing 10% hemolysis)” value in the series with rabbit red blood cells was over 1000 µg/mL.
The matching figures for `CC(=O)N[C@@H](CCCNC(=N)N)C(=O)N[C@@H](CCCCN)C(=O)N[C@@H](CC(C)C)C(=O)N[C@@H](CC(C)C)C(=O)N[C@@H](Cc1ccc2ccccc2c1)C(=O)N[C@@H](CCCNC(=N)N)C(=O)N[C@@H](CC(C)C)C(=O)N[C@@H](CCCCN)C(=O)N[C@@H](Cc1ccc2ccccc2c1)C(=O)N[C@@H](CCCNC(=N)N)C(=O)N[C@@H](CCCNC(=N)N)C(N)=O` [LV-52] (Ac-RKLL[2Nal]RLK[2Nal]RR-NH2): 8 µg/mL (≈ 4.78 µM) and over 1000 µg/mL.
For `CC(=O)N[C@@H](CCCCN)C(=O)N[C@@H](CCCNC(=N)N)C(=O)N[C@@H](CC(C)C)C(=O)N[C@@H](CC(C)C)C(=O)N[C@@H](Cc1ccc2ccccc2c1)C(=O)N[C@@H](CCCCN)C(=O)N[C@@H](CC(C)C)C(=O)N[C@@H](CCCCN)C(=O)N[C@@H](Cc1ccc2ccccc2c1)C(=O)N[C@@H](CCCCN)C(=O)N[C@@H](CCCNC(=N)N)C(N)=O` [LV-53] (Ac-KRLL[2Nal]KLK[2Nal]KR-NH2), in that order: 4 µg/mL (≈ 2.47 µM) and over 1000 µg/mL.

Values taken from patent publication US20250304620A1, “ANTIMICROBIAL PEPTIDE AND APPLICATION THEREOF” (priority 2023, published 2025).
